The source of these data is patent US8957093B2, “N-biphenylmethylindole modulators of PPARG” (The Scripps Research Institute, priority 2011, dated 2015).

pEC50: −log10 of the molar value. Where two headings read alike, the source gives them in different places.

Assay [1] concerns the target GST-PPARG-LBD (Homo sapiens (Human), UniProt P37231). The assay can be described thus: Lanthascreen PPARG competitive binding assay (Invitrogen, TR-FRET). The conditions noted are these: inc = incomplete curve, NA = not active, read-out: IC50 (nM) Lantha. The essentials: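 Values are fold change in 520 nm/490 nm FRET ratio relative to a 2% DMSO no-ligand control, excitation 340 nm. Compound dilutions starting at 10 μM competed against 5 nM Fluormone Pan-PPAR Green for GST-PPARG-LBD bound by 5 nM Tb anti-GST antibody. Incubation 2 h in the dark in assay buffer C, triplicate wells.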

In assay [2] the target is Gal-4-PPAR (human PPAR LBD fused to GAL4 DNA-binding domain) (Homo sapiens (Human), UniProt P37231). Description: GAL4-PPARG LBD / UAS-luciferase transactivation assay in HEK 293T cells. The assay is classed as cell-based.
Where [3] appears, read: Lanthascreen PPARG competitive binding.
The mark [4] stands for this setting: GAL4 transactivation; read-out: EC50 (nM) GAL4.
The mark [5] stands for this setting: HEK-293T, 18 h; read-out: % transactivation at 10 μM (GAL4).
The mark [6] stands for this setting: Lanthascreen competitive binding.
Setting [7] is: GAL4 transactivation, HEK 293T cells; NA = not active; read-out: EC50 (nM) GAL4.
[8] abbreviates: HEK-293T, 18 h, read-out: % transactivation at 10 μM (GAL4).

Chain of Gal-4-PPAR (human PPAR LBD fused to GAL4 DNA-binding domain) (P37231 238-503): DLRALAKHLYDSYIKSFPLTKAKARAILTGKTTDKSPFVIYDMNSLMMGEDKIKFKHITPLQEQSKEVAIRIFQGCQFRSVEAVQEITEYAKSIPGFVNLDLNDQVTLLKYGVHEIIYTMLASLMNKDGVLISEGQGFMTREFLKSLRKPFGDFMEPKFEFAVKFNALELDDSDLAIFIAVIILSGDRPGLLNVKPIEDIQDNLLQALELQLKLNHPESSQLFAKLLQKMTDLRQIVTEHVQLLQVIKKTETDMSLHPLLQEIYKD
Chain of GST-PPARG-LBD (P37231 238-503): as above

By IC50 is commonly meant the concentration that inhibits the measured activity by half. In general, EC50 refers to the concentration at which the effect is half-maximal. `Cc1c(C)n(Cc2ccc(-c3ccccc3C(=O)O)cc2)c2ccc(C(=O)N[C@@H](C)c3cccc(Br)n3)cc12` [Example 273, (S)-4′-((5-(1-(6-bromopyridin-2-yl)ethylcarbamoyl)-2,3-dimethyl-1H-indol-1-yl)methyl)biphenyl-2-carboxylic acid]: the IC50 in assay [1] (setting [3]) stood at 15 nM. For the same molecule, in assay [2] (setting [4]), the 50% effective concentration (EC50) was 294 nM. Also, the activation at 10 µM in assay [2] (setting [5]) amounted to 30%.

The pEC50 is the negative decadic logarithm of the EC50, by convention in mol/L. Read a low pEC50 as a high EC50. Take `Cc1c(C)n(Cc2ccc(-c3ccccc3C(=O)NO)cc2)c2ccc(C(=O)N[C@@H](C)c3cccc(C(C)C)c3)cc12` [Example 313]: in assay [1] (setting [3]), the IC50 was found to be 77 nM. In addition, the pEC50 in assay [2] was 6.62. Also, the activation at 10 µM in assay [2] (setting [5]) amounted to 4%.

As for `Cc1c(C)n(Cc2ccc(-c3ccccc3C(=O)O)cc2)c2ccc(C(=O)N[C@@H](C)c3ccncc3Cl)cc12` [Example 148, (S)-4′-((5-((1-(3-chloropyridin-4-yl)ethyl)carbamoyl)-2,3-dimethyl-1H-indol-1-yl)methyl)-[1,1′-biphenyl]-2-carboxylic acid], the IC50 in assay [1] (setting [6]) was 41 nM. Besides, the concentration giving a half-maximal response (EC50) in assay [2] (setting [7]) was determined as 7540 nM. Also, the activation at 10 µM in assay [2] (setting [5]) came to 35%.

In the case of `Cc1c(C)n(Cc2ccc(-c3ccccc3C(=O)O)cc2)c2ccc(C(=O)N[C@@H](C)C3COc4ccccc4O3)cc12` (stereo partly drawn) [Example 214, 4′-((5-(((1S)-1-(2,3-dihydrobenzo[b][1,4]dioxin-2-yl)ethyl)carbamoyl)-2,3-dimethyl-1H-indol-1-yl)methyl)-[1,1′-biphenyl]-2-carboxylic acid], the IC50 in assay [1] (setting [6]) is 25 nM. Also, the EC50 in assay [2] (setting [7]) turned out to be 2350 nM. The activation at 10 µM in assay [2] (setting [5]) came to 20%.

For the molecule `Cc1c(C)n(Cc2ccc(-c3ccccc3C(=O)O)cc2)c2ccc(C(=O)N[C@H](C)c3c(F)ccc(F)c3F)cc12` [Example 235, (R)-4′-((2,3-dimethyl-5-((1-(2,3,6-trifluorophenyl)ethyl)carbamoyl)-1H-indol-1-yl)methyl)-[1,1′-biphenyl]-2-carboxylic acid], the IC50 in assay [1] (setting [6]) was found to be 3 nM. Also, the EC50 in assay [2] (setting [7]) worked out at 37 nM. The activation at 10 µM in assay [2] (setting [8]) was determined as 30%.

`Cc1c(C)n(Cc2ccc(-c3ccccc3C(=O)O)cc2)c2ccc(C(=O)N[C@@H](C)c3ccc(F)cc3F)cc12` [Example 150, (S)-4′-((5-((1-(2,4-difluorophenyl)ethyl)carbamoyl)-2,3-dimethyl-1H-indol-1-yl)methyl)-[1,1′-biphenyl]-2-carboxylic acid]: the IC50 in assay [1] (setting [6]) is 5 nM. Also, in assay [2] (setting [7]), the EC50 stood at 180 nM. Further, the activation at 10 µM in assay [2] (setting [5]) is 30%.

For the molecule `Cc1c(C)n(Cc2ccc(-c3ccccc3C(=O)O)cc2)c2ccc(C(=O)N[C@@H](C)c3ccc(C4CC4)cc3)cc12` [Example 304, (S)-4′-((5-((1-(4-Cyclopropylphenyl)ethyl)carbamoyl)-2,3-dimethyl-1H-indol-1-yl)methyl)-[1,1′-biphenyl]-2-carboxylic acid], the IC50 in assay [1] (setting [3]) was 50 nM. Besides, the EC50 in assay [2] (setting [4]) stood at 2420 nM. Besides, the activation at 10 µM in assay [2] (setting [5]) stood at 15%.

Consider `Cc1c(C)n(Cc2ccc(-c3ccccc3C(=O)O)cc2)c2ccc(C(=O)NC(C)c3cncc(C4CC4)c3)cc12` (stereo not drawn) [Example 259, 4′-((5-(1-(5-cyclopropylpyridin-3-yl)ethylcarbamoyl)-2,3-dimethyl-1H-indol-1-yl)methyl)biphenyl-2-carboxylic acid], for which, in assay [1] (setting [6]), the IC50 stood at 19 nM. Further, the half-maximal effective concentration (EC50) in assay [2] (setting [7]) is 1480 nM. The activation at 10 µM in assay [2] (setting [5]) amounted to 15%.

Regarding `Cc1ccc(F)c([C@H](C)NC(=O)c2ccc3c(c2)c(C)c(C)n3Cc2ccc(-c3ccccc3C(=O)O)cc2)c1` [Example 211, (S)-4′-((5-((1-(2-fluoro-5-methylphenyl)ethyl)carbamoyl)-2,3-dimethyl-1H-indol-1-yl)methyl)-[1,1′-biphenyl]-2-carboxylic acid], the IC50 in assay [1] (setting [6]) was 6 nM. For the same molecule, the half-maximal effective concentration (EC50) in assay [2] (setting [7]) was determined as 251 nM. For the same molecule, the activation at 10 µM in assay [2] (setting [5]) stood at 20%.

On to `Cc1c(C)n(Cc2ccc(-c3ccccc3C(=O)O)cc2)c2ccc(C(=O)NC(C)c3cccc(C4CC4)n3)cc12` (stereo not drawn) [Example 272, 4′-((5-(1-(6-cyclopropylpyridin-2-yl)ethylcarbamoyl)-2,3-dimethyl-1H-indol-1-yl)methyl)biphenyl-2-carboxylic acid], for which, in assay [1] (setting [6]), the IC50 is < 1 nM. The EC50 in assay [2] (setting [7]) turned out to be 2 nM. Further, the activation at 10 µM in assay [2] (setting [5]) was determined as 20%.

Regarding `Cc1c(C)n(Cc2ccc(-c3ccccc3C(=O)O)cc2)c2ccc(C(=O)N[C@@H](C)c3ccccc3F)cc12` [Example 160, (S)-4′-((5-((1-(2-fluorophenyl)ethyl)carbamoyl)-2,3-dimethyl-1H-indol-1-yl)methyl)-[1,1′-biphenyl]-2-carboxylic acid], in assay [1] (setting [6]), the IC50 came to 7 nM. Moreover, in assay [2] (setting [7]), the EC50 was found to be 383 nM. For the same molecule, the activation at 10 µM in assay [2] (setting [8]) was 35%.

Turning to `Cc1c(C)n(Cc2ccc(-c3ccccc3C(=O)O)cc2)c2ccc(C(=O)N[C@@H](C)c3cccc(F)c3)cc12` [Example 158, (S)-4′-((5-((1-(3-fluorophenyl)ethyl)carbamoyl)-2,3-dimethyl-1H-indol-1-yl)methyl)-[1,1′-biphenyl]-2-carboxylic acid], the IC50 in assay [1] (setting [6]) was 8 nM. In addition, in assay [2] (setting [7]), the concentration giving a half-maximal response (EC50) was determined as 259 nM. Moreover, the activation at 10 µM in assay [2] (setting [8]) is 40%.

Take `Cc1c(C)n(Cc2ccc(-c3ccccc3C(=O)O)cc2)c2ccc(C(=O)N[C@@H](C)c3c(Cl)cccc3Cl)cc12` [Example 142, (S)-4′-((5-((1-(2,6-dichlorophenyl)ethyl)carbamoyl)-2,3-dimethyl-1H-indol-1-yl)methyl)-[1,1′-biphenyl]-2-carboxylic acid]: the IC50 in assay [1] (setting [6]) was 51 nM. The EC50 in assay [2] (setting [7]) was found to be 6060 nM. Besides, in assay [2] (setting [5]), the activation at 10 µM stood at 15%.

Consider `Cc1c(C)n(Cc2ccc(-c3ccccc3C(=O)O)cc2)c2ccc(C(=O)N[C@H](C)c3cc(F)ccc3C(F)(F)F)cc12` [Example 239, (R)-4′-((5-((1-(5-fluoro-2-(trifluoromethyl)phenyl)ethyl)carbamoyl)-2,3-dimethyl-1H-indol-1-yl)methyl)-[1,1′-biphenyl]-2-carboxylic acid], for which the IC50 in assay [1] (setting [6]) was found to be 17 nM. For the same molecule, the EC50 in assay [2] (setting [7]) stood at 169 nM. Moreover, the activation at 10 µM in assay [2] (setting [8]) came out at 15%.

`COc1cc(OC)cc([C@H](C)NC(=O)c2ccc3c(c2)c(C)c(C)n3Cc2ccc(-c3ccccc3C(=O)O)cc2)c1` [Example 147, (S)-4′-((5-((1-(3,5-dimethoxyphenyl)ethyl)carbamoyl)-2,3-dimethyl-1H-indol-1-yl)methyl)-[1,1′-biphenyl]-2-carboxylic acid]: the IC50 in assay [1] (setting [6]) is 20 nM. Moreover, in assay [2] (setting [7]), the EC50 came to 9280 nM. Moreover, the activation at 10 µM in assay [2] (setting [5]) came out at 20%.

On to `Cc1cc(Cl)ccc1[C@H](C)NC(=O)c1ccc2c(c1)c(C)c(C)n2Cc1ccc(-c2ccccc2C(=O)O)cc1` [Example 226, (S)-4′-((5-((1-(4-chloro-2-methylphenyl)ethyl)carbamoyl)-2,3-dimethyl-1H-indol-1-yl)methyl)-[1,1′-biphenyl]-2-carboxylic acid], for which the IC50 in assay [1] (setting [6]) worked out at 11 nM. Further, the EC50 in assay [2] (setting [7]) is 172 nM. Besides, the activation at 10 µM in assay [2] (setting [5]) was 20%.

`Cc1c(C)n(Cc2ccc(-c3ccccc3C(=O)O)cc2)c2ccc(C(=O)N[C@@H](C)c3ccccn3)cc12` [Example 144, (S)-4′-((2,3-dimethyl-5-((1-(pyridin-2-yl)ethyl)carbamoyl)-1H-indol-1-yl)methyl)-[1,1′-biphenyl]-2-carboxylic acid]: the IC50 in assay [1] (setting [6]) was 2 nM. The EC50 in assay [2] (setting [7]) was 13 nM. The activation at 10 µM in assay [2] (setting [5]) worked out at 25%.
